Results from PubChem BioAssay AID248 (DTP/NCI, 2004).
Values joined by “and” are separate entries in the source; they are usually repeats but may differ in a detail not shown here. Equal values may be shown once. Toxic doses and inconclusive results are not listed.

Tested on: L1210 leukemia ip in BDF1 mice, survival T/C
Assay: NCI In Vivo Anticancer Drug Screen. Data for tumor model L1210 Leukemia (intraperitoneal) in B6D2F1 (BDF1) mice
Settings: endpoint: mean survival time, higher = longer survival
In short: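 Read-out is survival time, reported as the treated-group measurement over the vehicle-control measurement.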

[1] = dose: 50.0 mg/kg/injection, schedule: Q01DX009 (ip), vehicle: saline with Tween-80
[2] = dose: 100.0 mg/kg/injection, schedule: Q04DX003 (ip), vehicle: saline with Tween-80
[3] = dose: 200.0 mg/kg/injection, schedule: Q04DX003 (ip), vehicle: saline with Tween-80
[4] = dose: 200.0 mg/kg/injection, schedule: Q01DX009 (ip), vehicle: saline with Tween-80
[5] = dose: 100.0 mg/kg/injection, schedule: Q01DX009 (ip), vehicle: Klucel (hydroxypropylcellulose) (HPC)
[6] = dose: 100.0 mg/kg/injection, schedule: Q04DX003 (ip), vehicle: Klucel (hydroxypropylcellulose) (HPC)
[7] = dose: 200.0 mg/kg/injection, schedule: Q01DX009 (ip), vehicle: Klucel (hydroxypropylcellulose) (HPC)
[8] = dose: 200.0 mg/kg/injection, schedule: Q04DX003 (ip), vehicle: Klucel (hydroxypropylcellulose) (HPC)

## O=C(C=C(C(F)(F)F)C(F)(F)F)c1ccc(-c2ccccc2)cc1
dose: 25.0 mg/kg/injection, schedule: Q01DX009 (ip), vehicle: saline with Tween-80
  T/C: 98 % of control
[1]
  T/C: 98 % of control
dose: 50.0 mg/kg/injection, schedule: Q04DX003 (ip), vehicle: saline with Tween-80
  T/C: 92 % of control
[2]
  T/C: 87 % of control
[3]
  T/C: 86 % of control

## CN(C)C(=S)Oc1ccc(O)cc1
dose: 100.0 mg/kg/injection, schedule: Q01DX001 (ip), vehicle: saline with Tween-80
  T/C: 102 % of control
dose: 200.0 mg/kg/injection, schedule: Q01DX001 (ip), vehicle: saline with Tween-80
  T/C: 97 % of control
dose: 400.0 mg/kg/injection, schedule: Q01DX001 (ip), vehicle: saline with Tween-80
  T/C: 100 % of control

## CC(C)CCCCCCCCOC(=O)c1ccccc1C(=O)OCCCCCCCCC(C)C
dose: 100.0 mg/kg/injection, schedule: Q01DX001 (ip), vehicle: saline
  T/C: 98 % of control
dose: 200.0 mg/kg/injection, schedule: Q01DX001 (ip), vehicle: saline
  T/C: 103 % of control
dose: 400.0 mg/kg/injection, schedule: Q01DX001 (ip), vehicle: saline
  T/C: 103 % of control

## COc1ccc(Oc2ccccc2)cc1-c1ccccc1
dose: 100.0 mg/kg/injection, schedule: Q01DX001 (ip), vehicle: carboxymethylcellulose (CMC)
  T/C: 93 % of control
dose: 200.0 mg/kg/injection, schedule: Q01DX001 (ip), vehicle: carboxymethylcellulose (CMC)
  T/C: 102 % of control
dose: 400.0 mg/kg/injection, schedule: Q01DX001 (ip), vehicle: carboxymethylcellulose (CMC)
  T/C: 96 % of control

## C=Cc1ccc(N)cc1
[1]
  T/C: 90 % of control
[2]
  T/C: 87 % of control
[4]
  T/C: 93 % of control
[3]
  T/C: 90 % of control

## CCOC(=O)c1cnc(SCCN2C(=O)c3ccccc3C2=O)[nH]c1=O
dose: 100.0 mg/kg/injection, schedule: Q04DX003 (ip), vehicle: gum acacia
  T/C: 100 % of control
dose: 200.0 mg/kg/injection, schedule: Q04DX003 (ip), vehicle: gum acacia
  T/C: 102 % of control
dose: 400.0 mg/kg/injection, schedule: Q04DX003 (ip), vehicle: gum acacia
  T/C: 97 % of control

## COC(=O)C1C2C=CC(C2)C1C(=O)O (stereo not drawn)
[5]
  T/C: 103 % of control
dose: 100.0 mg/kg/injection, schedule: Q01DX009 (ip), vehicle: saline with Tween-80
  T/C: 92 % of control
[6]
  T/C: 98 % of control
[7]
  T/C: 92 % of control
[4]
  T/C: 86 % of control
[8]
  T/C: 97 % of control
dose: 400.0 mg/kg/injection, schedule: Q01DX009 (ip), vehicle: Klucel (hydroxypropylcellulose) (HPC)
  T/C: 88 % of control
dose: 400.0 mg/kg/injection, schedule: Q01DX009 (ip), vehicle: saline with Tween-80
  T/C: 87 % of control
dose: 400.0 mg/kg/injection, schedule: Q04DX003 (ip), vehicle: Klucel (hydroxypropylcellulose) (HPC)
  T/C: 97 % of control

## Cc1cc(C)n(/N=C/c2ccc(N(C)C)cc2)c(=O)c1C#N
dose: 100.0 mg/kg/injection, schedule: Q04DX003 (ip), vehicle: saline
  T/C: 95 % of control
dose: 200.0 mg/kg/injection, schedule: Q04DX003 (ip), vehicle: saline
  T/C: 95 % of control
dose: 400.0 mg/kg/injection, schedule: Q04DX003 (ip), vehicle: saline
  T/C: 95 % of control

## Cc1ccc(C2(C(=O)O)CCCCC2)cc1
dose: 50.0 mg/kg/injection, schedule: Q01DX009 (ip), vehicle: Klucel (hydroxypropylcellulose) (HPC)
  T/C: 96 % of control
[5]
  T/C: 90 % of control
[6]
  T/C: 102 % of control
[7]
  T/C: 88 % of control
[8]
  T/C: 98 % of control

## O=[N+]([O-])c1cc(CCl)ccc1CCl
dose: 50.0 mg/kg/injection, schedule: Q04DX003 (ip), vehicle: Klucel (hydroxypropylcellulose) (HPC)
  T/C: 86 % of control
[6]
  T/C: 92 % of control
[8]
  T/C: 98 % of control

## CCOC(=O)c1ccc(N(CCC(=O)CBr)C(C)=O)cc1
dose: 5.0 mg/kg/injection, schedule: Q01DX001 (ip), vehicle: carboxymethylcellulose (CMC)
  T/C: 97 % of control
dose: 10.0 mg/kg/injection, schedule: Q01DX001 (ip), vehicle: carboxymethylcellulose (CMC)
  T/C: 100 % of control
dose: 20.0 mg/kg/injection, schedule: Q01DX001 (ip), vehicle: carboxymethylcellulose (CMC)
  T/C: 100 % of control
dose: 40.0 mg/kg/injection, schedule: Q01DX001 (ip), vehicle: carboxymethylcellulose (CMC)
  T/C: 97 % of control

## CC(=O)OC1CCC2(C)C3CCC4(C)C(CCC45OC5(C)OC(C)=O)C3CC3OC32C1 (stereo not drawn)
dose: 50.0 mg/kg/injection, schedule: Q01DX001 (sc), vehicle: steriod suspending solution
  T/C: 111 % of control
dose: 100.0 mg/kg/injection, schedule: Q01DX001 (sc), vehicle: steriod suspending solution
  T/C: 98 % of control
dose: 200.0 mg/kg/injection, schedule: Q01DX001 (sc), vehicle: steriod suspending solution
  T/C: 106 % of control
dose: 400.0 mg/kg/injection, schedule: Q01DX001 (sc), vehicle: steriod suspending solution
  T/C: 101 % of control

## OCCN1CCN(CCCN2c3ccccc3Sc3ccc(C(F)(F)F)cc32)CC1
dose: 0.09 mg/kg/injection, schedule: Q01DX009 (ip), vehicle: Klucel (hydroxypropylcellulose) (HPC)
  T/C: 109 % of control
dose: 0.12 mg/kg/injection, schedule: Q01DX009 (ip), vehicle: acetone
  T/C: 107 % of control
dose: 0.19 mg/kg/injection, schedule: Q01DX009 (ip), vehicle: Klucel (hydroxypropylcellulose) (HPC)
  T/C: 97 % of control
dose: 0.25 mg/kg/injection, schedule: Q01DX009 (ip), vehicle: acetone
  T/C: 106 % of control
dose: 0.39 mg/kg/injection, schedule: Q01DX009 (ip), vehicle: Klucel (hydroxypropylcellulose) (HPC)
  T/C: 120 % of control
dose: 0.39 mg/kg/injection, schedule: Q01DX009 (ip), vehicle: saline
  T/C: 97 % of control
dose: 0.39 mg/kg/injection, schedule: Q04DX003 (ip), vehicle: saline
  T/C: 101 % of control
dose: 0.5 mg/kg/injection, schedule: Q01DX009 (ip), vehicle: acetone
  T/C: 112 % of control
dose: 0.58 mg/kg/injection, schedule: Q01DX009 (ip), vehicle: saline
  T/C: 111 % of control
dose: 0.78 mg/kg/injection, schedule: Q01DX009 (ip), vehicle: Klucel (hydroxypropylcellulose) (HPC)
  T/C: 101 % of control
dose: 0.78 mg/kg/injection, schedule: Q01DX009 (ip), vehicle: saline
  T/C: 108 % of control
dose: 0.78 mg/kg/injection, schedule: Q04DX003 (ip), vehicle: saline
  T/C: 97 % of control and 108 % of control
dose: 1.0 mg/kg/injection, schedule: Q01DX009 (ip), vehicle: acetone
  T/C: 120 % of control
dose: 1.17 mg/kg/injection, schedule: Q01DX009 (ip), vehicle: saline
  T/C: 108 % of control
dose: 1.25 mg/kg/injection, schedule: Q01DX009 (ip), vehicle: saline
  T/C: 98 % of control
dose: 1.56 mg/kg/injection, schedule: Q01DX009 (ip), vehicle: Klucel (hydroxypropylcellulose) (HPC)
  T/C: 92 % of control
dose: 1.56 mg/kg/injection, schedule: Q01DX009 (ip), vehicle: saline
  T/C: 87 % of control
dose: 1.56 mg/kg/injection, schedule: Q04DX003 (ip), vehicle: saline
  T/C: 97 % of control and 108 % of control
dose: 2.34 mg/kg/injection, schedule: Q01DX009 (ip), vehicle: saline
  T/C: 97 % of control
dose: 3.12 mg/kg/injection, schedule: Q04DX003 (ip), vehicle: saline
  T/C: 102 % of control and 101 % of control
dose: 4.68 mg/kg/injection, schedule: Q04DX003 (ip), vehicle: Klucel (hydroxypropylcellulose) (HPC)
  T/C: 92 % of control
dose: 5.0 mg/kg/injection, schedule: Q01DX009 (ip), vehicle: saline
  T/C: 94 % of control and 88 % of control
dose: 6.25 mg/kg/injection, schedule: Q04DX003 (ip), vehicle: saline
  T/C: 100 % of control and 114 % of control and 112 % of control
dose: 6.6 mg/kg/injection, schedule: Q04DX003 (ip), vehicle: saline
  T/C: 106 % of control
dose: 9.37 mg/kg/injection, schedule: Q04DX003 (ip), vehicle: Klucel (hydroxypropylcellulose) (HPC)
  T/C: 107 % of control
dose: 10.0 mg/kg/injection, schedule: Q04DX003 (ip), vehicle: saline
  T/C: 117 % of control
dose: 12.5 mg/kg/injection, schedule: Q04DX003 (ip), vehicle: saline
  T/C: 107 % of control and 116 % of control
dose: 15.0 mg/kg/injection, schedule: Q04DX003 (ip), vehicle: saline
  T/C: 117 % of control
dose: 50.0 mg/kg/injection, schedule: Q04DX003 (ip), vehicle: saline
  T/C: 164 % of control
